According to US10675360B2 (MADRIGAL PHARMACEUTICALS, INC., priority 2014, dated 2020):
Where two headings read alike, the source gives them in different places.

Tests used:
[1] = Stability in mouse plasma; type: in vitro ADME; details: for % Remaining: 1 h; for Mouse (10 μM) % Remaining 1 h (37° C.) §: § not explained
Hsp90α = target: T1, Hsp90α (Homo sapiens, UniProt P07900); experiment: Hsp90α binding assay (fluorescence polarization, FITC-labeled geldanamycin)
T1 construct: purchased BPS Bioscience 50294
Procedure: An Hsp90^α fluorescence assay kit from BPS Bioscience (Cat #50294) containing Hsp90 recombinant enzyme, FITC-labeled geldanamycin, assay buffer and a low binding 384-well plate was used to assay Hsp90^α binding. Dithiothreitol (DTT) (Cat # D0643) and bovine serum albumin (BSA) (Cat # A2153) were obtained from Sigma-Aldrich. Fluorescence polarization was measured using a PHERAstar microplate reader (BMG LABTECH GmbH, Ortenberg, Germany.)
The compounds were diluted to 1 mM in DMSO and loaded into a compound dilution plate to make 3-fold dilutions yielding a total of 8 concentrations. 1 μL of compound was transferred from the dilution plate to the low binding assay plate provided in the assay kit. 5 mL of Hsp90^α binding solution was prepared having a final concentration of 7 ng/μL Hsp90^α, 5 nM FITC-labeled geldanamycin, 2 mM DTT and 0.1 mg/mL BSA. 49 μL of binding solution was added to each microplate well, incubated at room temperature for 1 hour, then read using the PHERAstar microplate reader. The high control sample contained no compound plus Hsp90^α; the low control sample contained no compound and no Hsp90^α. […] The IC50 was calculated using GraphPad Prism 4 software.

[2] = Stability in cell culture media; details: § not explained
Procedure: 98 μL of DMEM+10% FBS, +1% P/S, +1.5 g/L sodium bicarbonate cell culture media was mixed with 2 μL of DMSO and aliquotted into 96-well plates at 250 μL per 0, 1, 2, and 18 hour time point.
3×50 μL media samples in 96 were held in 96-well plates at −80° C. until the last time point was extracted. 200 μL of methanol containing IS was added and mixed by vortex at 1500 rpm for 1.5 minutes at room temperature. The samples were centrifuged at 4400 rpm for 10 minutes at 8° C.

H 3211 NSLC cells = experiment: IC50 of continuous and pulsed exposure to SDC-TRAPs; type: cell-based; details: 72 h, read-out: IC50, 72 h-continuous, H 3211 NSLC cells, 7.5 × 10^3 cells/well; 1st of 3 columns
[3] = Tissue distribution of ganetespib in female CD-1 nu/nu mice bearing RERF human NSCLC xenografts; type: in vivo, mouse; details: ganetespib 50 mg/kg IV
Procedure: To confirm the distribution of ganetespib in blood, livers, kidneys, brains, hearts, lungs and tumors after IV administration of ganetespib to female CD-1 nu/nu mice bearing RERF human NSCLC xenografts, and to examine metabolic profiles of ganetespib in plasma, red blood cells, and above tissues.
Animals: female CD-1 nu/nu mice bearing RERF human NSCLC xenografts (N=3/group)
Formulation: 10% DMSO, 18% Cremophor RH40, 3.6% dextrose solution (DRD)
Bleeding time points: 5 min, 6, 24 hr
Collected tissues: blood (plasma and red blood cells (RBC)), liver, kidneys, brain, heart, lung, tumor
Protein precipitation: 50 μL of 10 times diluted plasma or RBC+150 μL ACN (10 mM NH4OAc), vortexed and centrifuged at 10000 rpm for 8 min; 150 μL supernatant+150 μL water (10 mM NH4OAc)
Protein precipitation: 100 μL homogenized tissue (1:3 tissue: PBS buffer)+100 μL ACN (10 mM NH4OAc), vortexed and centrifuged at 10000 rpm for 8 min

[4] = Tissue distribution of SDC-TRAPs in tumor-bearing mice (plasma, tumor, heart); details: mouse, in vivo; for Kp: tissue distribution of SDC-TRAP-0076, read-out: Tumor/Plasma Ratio
Procedure: Using the 10 mM stock solutions of the SDC-TRAP molecule and its Hsp90i binding moiety and effector moiety in DMSO, spiking solutions were prepared at 0.025, 0.05, 0.1, 0.5, 1, 5, 10, 50, 100, 250, and 500 μM in DMSO. 5 μL of each spiking solution was added to a 96-deep well plate.
Quality control standards were prepared from 5 μL of 0.1, 1, and 10 μM calibration standard spiking solution added in triplicate into 96-deep well plate and adding 50 μL of matrix (plasma or homogenized tumor).
To prepare test samples, test plasma was diluted as needed using blank plasma. Tumor samples were pulverized in liquid nitrogen, weighed, and homogenized in PBS at 5× volume to sample weight. 50 μL of unknown plasma or homogenized tumor sample was mixed with 5 μL of DMSO. The samples were extracted by precipitating calibration standards, QC standards, and unknown samples with 200 μL of internal standard solution. The samples were mixed by vortex at room temperature for approximately 1.5 minutes, then centrifuge at 2-8° C. 150 μL of supernatant was collected and 25 μL of water added. Samples were mixed and analyzed by LC-MS/MS.
Samples of plasma, heart and tumor were excised from a euthanized mouse, homogenized in PBS at 5 times tissue weight and diluted in 5 μL DMSO/50 μL sample. Prior to analysis, 55 μL samples and calibration standards were precipitated in 200 μL methanol in 96-well plates. Samples were mixed on a vortex mixer for 1.5 minutes at 1500 rpm at room temperature, then centrifuged at 4400 rpm for 10 minutes at 8° C. 150 μL of each supernatant was transferred to a well of a new 96-well plate, and 25 μL of water was added and mixed with the sample. […] For the analysis of samples from female SCID mice, a gradient of solvent A (water/0.1% formic acid) and B (acetonitrile/0.1% formic acid) was used as in Table A below.

[5] = Artificial membrane permeability assay (PAMPA); type: in vitro ADME; details: 5 h incubation, first table
Procedure: In order to test the ability SDC-TRAP molecules of the invention to enter cells, an artificial membrane permeability assay (“PAMPA”) was used. […] LC/MS was used in conjunction with PAMPA assays to determine the ability of the SDC-TRAP molecules of the invention to permeate cells.
Pre-coated PAMPA plates were warmed to room temperature for at least 30 minutes prior to adding assay components.
Stock solutions were prepared with the SDC-TRAP molecules to be tested. In order to make a working solution, either 50 μL of 100 μM Stock in DMSO+950 μL of PBS or 50 μL of 200 μM stock was added to 96 deep well plate, resulting in a 5 μM final concentration or a 10 μM final concentration, respectively. 300 μL of the working solution containing each compound to be tested was added to the appropriate well of a donor PAMPA plate. 200 μL of PBS was added into the corresponding wells of an acceptor PAMPA plates.
The acceptor plate was lowered onto the donor plate and allowed to incubate for five hours. After five hours, a 50 μL aliquot was removed from each well of each plate and added into a new 96 deep-well plate.
100 μL of methanol containing an internal standard was added to each aliquot and analyzed by LC/MS. The internal standard was 150 ng/ml SDC-TRAP-0002.
In order to calculate the permeability for each SDC-TRAP molecule and the control molecules, the following formula was used:

[6] = system: MCF-7 breast cancer cells; experiment: Mouse xenograft efficacy in an MCF-7 breast cancer model; type: in vivo; details: FIG. 8
Procedure: MCF-7 breast cancer cells were purchased from ATCC. […] Fetal bovine serum was then added to the medium. The final concentration of fetal bovine serum was 10%. Cells were cultured at 37° C. and 5% CO2.
Mice that were not put on treatment were euthanized. Animals were sourced through CRL (Wilmington, Mass.).

## CCc1c2c(nc3ccc(OC(=O)N(C)C4CCN(C(=O)CCn5ccc6cc(-n7c(O)nnc7-c7cc(C(C)C)c(O)cc7O)ccc65)CC4)cc13)-c1cc3c(c(=O)n1C2)COC(=O)C3(O)CC (stereo not drawn) [SDC-TRAP-0184, 4,11-diethyl-4-hydroxy-3,14-dioxo-3,4,12,14-tetrahydro-1H-pyrano[3′,4′:6,7]indolizino[1,2-b]quinolin-9-yl (1-(3-(5-(3-(2,4-dihydroxy-5-isopropylphenyl)-5-hydroxy-4H-1,2,4-triazol-4-yl)-1H-indol-1-yl)propanoyl)piperidin-4-yl)(methyl)carbamate]
[1]; mouse plasma, 37° C.
  % Remaining: 18.0%
Hsp90α
  EC50: 86.6 nM

## CCc1c2c(nc3ccc(OC(=O)N(C)CCOCCn4ccc5cc(-n6c(O)nnc6-c6cc(C(C)C)c(O)cc6O)ccc54)cc13)-c1cc3c(c(=O)n1C2)COC(=O)C3(O)CC (stereo not drawn) [SDC-TRAP-0029, 4,11-diethyl-4-hydroxy-3,14-dioxo-3,4,12,14-tetrahydro-1H-pyrano[3′,4′:6,7]indolizino[1,2-b]quinolin-9-yl (2-(2-(5-(3-(2,4-dihydroxy-5-isopropylphenyl)-5-hydroxy-4H-1,2,4-triazol-4-yl)-1H-indol-1-yl)ethoxy)ethyl)(methyl)carbamate]
[2]
  Media (5 μM) % Remaining 1 h (37° C.) §: 43%
[1]; mouse plasma, 10 μM
  Mouse (10 μM) % Remaining 1 h (37° C.) §: 44%
[1]; mouse plasma, 37° C.
  % Remaining: 47%
H 3211 NSLC cells
  IC50: 79 nM

## CC(C)c1cc(-c2n[nH]c(=O)n2-c2ccc3c(ccn3C)c2)c(O)cc1O [ganetespib]
[3]; 5 min
  Concentration in tumor: 2.35 µM
[3]; 24 hr
  Concentration in plasma: <LLOQ
[3]; up to 24 hr
  Persistence in tumor versus plasma and other tissues: persist longer in tumor than in plasma or any other tissues studied

## CCc1c2c(nc3ccc(OC(=O)N4CCN(c5ccc(-n6c(O)nnc6-c6cc(C(C)C)c(O)cc6O)cc5)CC4)cc13)-c1cc3c(c(=O)n1C2)COC(=O)C3(O)CC (stereo not drawn) [SDC-TRAP-0045, 4,11-diethyl-4-hydroxy-3,14-dioxo-3,4,12,14-tetrahydro-1H-pyrano[3′,4′:6,7]indolizino[1,2-b]quinolin-9-yl 4-(4-(3-(2,4-dihydroxy-5-isopropylphenyl)-5-hydroxy-4H-1,2,4-triazol-4-yl)phenyl)piperazine-1-carboxylate]
[2]
  Media (5 μM) % Remaining 1 h (37° C.) §: 72%
[1]; mouse plasma, 10 μM
  Mouse (10 μM) % Remaining 1 h (37° C.) §: 34%
[1]; mouse plasma, 37° C.
  % Remaining: 45%

## CC(C)c1cc(-c2nnc(O)n2-c2ccc(CC3CCN(CC(=O)Nc4cccc5c4CN(C4CCC(=O)NC4=O)C5=O)CC3)cc2)c(O)cc1O (stereo not drawn) [SDC-TRAP-0116, 2-(4-(4-(3-(2,4-dihydroxy-5-isopropylphenyl)-5-hydroxy-4H-1,2,4-triazol-4-yl)benzyl)piperidin-1-yl)-N-(2-(2,6-dioxopiperidin-3-yl)-1-oxoisoindolin-4-yl) acetamide]
[4]
  Kp at 48 h: 4.65
[1]; mouse, plasma, 10 μM
  % Remaining: 91.1%

## CC(C)c1cc(-c2nnc(O)n2-c2ccc3c(ccn3CCNC(=O)CCCCCNC(=O)CCCC[C@H]3SCC4NC(=O)NC43)c2)c(O)cc1O (stereo in doubt) [SDC-TRAP-0234, N-(2-(5-(3-(2,4-dihydroxy-5-isopropylphenyl)-5-hydroxy-4H-1,2,4-triazol-4-yl)-1H-indol-1-yl)ethyl)-6-(5-((3aR,4R,6aS)-2-oxohexahydro-1H-thieno[3,4-d]imidazol-4-yl)pentanamido)hexanamide]
[5]
  Papp at 5 h: 0.0123 ×10⁻⁶ cm/s

## CCNC(=O)c1nnc(-c2cc(C(C)C)c(O)cc2O)n1-c1ccc(CN2CCC(C(=O)N3CCC(C(=O)OC4(CC)C(=O)OCc5c4cc4n(c5=O)Cc5c-4nc4ccc(O)cc4c5CC)CC3)CC2)cc1 (stereo not drawn) [SDC-TRAP-0076, 4,11-diethyl-9-hydroxy-3,14-dioxo-3,4,12,14-tetrahydro-1H-pyrano[3′,4′:6,7]indolizino[1,2-b]quinolin-4-yl 1-(1-(4-(3-(2,4-dihydroxy-5-isopropylphenyl)-5-(ethylcarbamoyl)-4H-1,2,4-triazol-4-0)benzyl)piperidine-4-carbonyl)piperidine-4-carboxylate]
[4]; 1 h
  Kp: 0.17
[4]; 6 h
  Kp: 2.25
[4]; 24 h
  Kp: 20.4
[4]; 48 h
  Kp: 6.85
[4]; […]
  Kp: 0.01
[1]; mouse plasma, 37° C.
  % Remaining: 96%

## CCc1c2c(nc3ccc(OC(=O)N4CCN(Cc5ccc(-n6c(O)nnc6-c6cc(C(C)C)c(O)cc6O)cc5)CC4)cc13)-c1cc3c(c(=O)n1C2)COC(=O)C3(O)CC (stereo not drawn) [SDC-TRAP-0046, 4,11-diethyl-4-hydroxy-3,14-dioxo-3,4,12,14-tetrahydro-1H-pyrano[3′,4′:6,7]indolizino[1,2-b]quinolin-9-yl 4-(4-(3-(2,4-dihydroxy-5-isopropylphenyl)-5-hydroxy-4H-1,2,4-triazol-4-yl)benzyl)piperazine-1-carboxylate]
[2]
  Media (5 μM) % Remaining 1 h (37° C.) §: 62%
[1]; mouse plasma, 10 μM
  Mouse (10 μM) % Remaining 1 h (37° C.) §: 50%
[1]; mouse plasma, 37° C.
  % Remaining: 52%

## CCc1c2c(nc3ccc(OC(=O)N4CCC(CCn5ccc6cc(-n7c(O)nnc7-c7cc(C(C)C)c(O)cc7O)ccc65)CC4)cc13)-c1cc3c(c(=O)n1C2)COC(=O)[C@]3(O)CC [SDC-TRAP-0063, 4,11-diethyl-4-hydroxy-3,14-dioxo-3,4,12,14-tetrahydro-1H-pyrano[3′,4′:6,7]indolizino[1,2-b]quinolin-9-yl 4-(2-(5-(3-(2,4-dihydroxy-5-isopropylphenyl)-5-hydroxy-4H-1,2,4-triazol-4-yl)-1H-indol-1-yl)ethyl)piperidine-1-carboxylate]
[4]
  Selective targeting of tumor: selectively targets and accumulates in tumor cells
[6]; 150 mg/kg/1×wk compared to 100 mg/kg/1×wk
  Suppression of increase in tumor volume, higher versus lower dose: appears to prolong the suppression of increase in tumor volume compared to a lower dose
[6]; 150 or 100 mg/kg/1×wk
  Tumor growth suppression versus irinotecan alone or ganetespib plus irinotecan: greater tumor growth suppression than effector moiety irinotecan alone
[1]; mouse, plasma, 10 μM
  % Remaining: 11.1%
Hsp90α
  EC50: 158 nM

## CCc1c2c(nc3ccc(O)cc13)-c1cc3c(c(=O)n1C2)COC(=O)[C@]3(O)CC [SN-38]
[4]; 1 h
  Plasma Conc.: 4.34 µM
  Tumor/Plasma Ratio: 0.11
[4]; Plasma Conc.
  concentration at 1 h: 8.6 µM
[4]; Tumor/Plasma Ratio
  Kp at 1 h: 0.07
